One test relates to DRB1*04 and *15 alleles. The following applies: literature, Mycko et al. 2004; cited from earlier work.
The subject of a further test is PBMCs. Nature of the test: PBMC culture with candidate peptides for 14 days, IFN-γ and IL-5 in supernatant by ELISA. The following applies: for IFN-γ/IL-5 ratio (geometric mean): peptide 10 μg/mL. The class given is cell-based, human. The text has this: Measurement of antigen-specific T cell responses in the peripheral blood in humans differs depending on whether responses are high affinity interactions with foreign (viral) epitopes or lower affinity interactions involving recognition of self-antigens. […] Given that T cell responses directed against MAGE and IL-13Rα2 antigens also involve T cells with low affinity to these self-antigens, antigen-specific responses were quantified based on cytokine secretion, as recently described in a phase I study of patients with MS (Viglietta V, et al: Neurology 2008, 71(12):917-924). Cytokine production was quantified by ELISA, defining a positive T cell response for each patient as the amounts of IFN-γ or IL-5 that were >50 pg/mL and two standard deviations above the mean cytokine levels secreted after stimulation of cells from that patient with negative control MBP peptide.
Twenty-five mL of blood from patients or healthy subjects was obtained under an IRB-approved protocol. All samples of blood from patients were taken at the time of surgery. […] All tumor-bearing patients received similar doses of steroids and anti-epileptic medications at the time of tumor debulking surgery prior to obtaining peripheral blood for these studies. T cell responses in patients with meningiomas controlled for influences of steroids on antigen responsiveness and cytokine balance. Tumor tissue was independently confirmed in all cases by formal pathological analysis. PBMCs were purified from heparinized blood by density gradient centrifugation using Ficoll-Hypaque (GE Healthcare Biosciences), and cells were then washed with PBS and viable cells quantified by trypan-blue staining.
Freshly isolated PBMCs were plated at 2×10^5 cells/well in 200 μl of serum-free X-VIVO15 (X15) media (Lonza) in 96-well round-bottom cell culture plates. Candidate peptides, in addition to a negative control peptide derived from MBP were added at a concentration of 10 μg/mL and anti-CD3 mAb was added at a concentration of 1 μg/mL. Six T cell cultures were established for each condition in each subject, and 100 IU/ml of IL-2 was added on the following day. Plates were incubated at 37° C. and 5% CO2 for 14 days, with media changed as needed, and the supernatant was harvested to evaluate T cell responses (cytokines) induced by each condition using ELISA. In a limited number (n=3) of patients, cytokine production was assessed after both 7 and 14 days. […] An IFN-γ ELISPOT assay was performed as previously described (Lv H, Havari E, et al: J Clin Invest, 121(4):1561-1573).
To detect T helper cell responses directed against the candidate peptides, IFN-γ and IL-5 were measured by ELISA using commercially available kits supplied by BD bioscience. IFN-γ was used as a prototypic Th1 cytokine and IL-5 was chosen as a prototypic cytokine released by Th2 cells because unlike IL-4 there would be no potential consumption by antigen-specific T cells in the culture conditions (Kourilsky P, Truffa-Bachi P: Trends Immunol 2001, 22(9):502-509).
For orientation: An ELISA detects its analyte on a solid surface through an enzyme-linked reagent.

“ENPVVHFFKNIVTPR [MBP85-99, reference compound]”: the “HLA class II alleles shown to bind (experimental data)” value with DRB1*04 and *15 alleles was “bind to both the DRB1*04 and *15 alleles”. The “mean cut-off for a positive cytokine response based on cytokine induced by control MBP peptide, IFN-γ” value with PBMCs (GBM patients) turned out to be 123 pg/mL; in the test with PBMCs (healthy subjects) it was 895 pg/mL. The “mean cut-off for a positive cytokine response based on cytokine induced by control MBP peptide, IL-5” value with PBMCs (GBM patients) was 312 pg/mL.

Regarding WQYFFPVIFSKASSSLQL [MAGE-A3143-160], the “positive wells among 6 primary T cell responses (IFN-γ or IL-5 ELISA)” value with PBMCs (Healthy Subject 1) is reported as “+++ (+++/++++ cell=3-4 positive wells)”; in the test on PBMCs (Healthy Subject 2), “+++ (+++/++++ cell=3-4 positive wells)”; in the test on PBMCs (Healthy Subject 3), “+ (+/++ cell=1-2 positive wells)”; in the test on PBMCs (Healthy Subject 4) it was “+++++ (+++++/++++++ cell=5-6 positive wells)”; with PBMCs (Healthy Subject 5) it was “++ (+/++ cell=1-2 positive wells)”; in the test on PBMCs (Healthy Subject 6) it was “+ (+/++ cell=1-2 positive wells)”. The “positive wells among 6 primary T cell responses (IFN-γ or IL-5 ELISA)” value is recorded as “+ (+/++ cell=1-2 positive wells)” with PBMCs (Meningioma 4); “+ (+/++ cell=1-2 positive wells)” in the test on PBMCs (Meningioma 6); “+ (+/++ cell=1-2 positive wells)” with PBMCs (Meningioma 7); “++++ (+++/++++ cell=3-4 positive wells)” with PBMCs (Primary GBM 1); “+++ (+++/++++ cell=3-4 positive wells)” in the test with PBMCs (Primary GBM 2); “+ (+/++ cell=1-2 positive wells)” in the test on PBMCs (Primary GBM 3). Moreover, the “positive wells among 6 primary T cell responses (IFN-γ or IL-5 ELISA)” value in the test on PBMCs (Primary GBM 4) is recorded as “+ (+/++ cell=1-2 positive wells)”; in the test with PBMCs (Primary GBM 5) it was “+ (+/++ cell=1-2 positive wells)”; in the test on PBMCs (Primary GBM 6) it was “+ (+/++ cell=1-2 positive wells)”; with PBMCs (Primary GBM 7), “++ (+/++ cell=1-2 positive wells)”; with PBMCs (Primary GBM 8), “+++++ (+++++/++++++ cell=5-6 positive wells)”; with PBMCs (Recurrent GBM 1), “+ (+/++ cell=1-2 positive wells)”. Also, the “positive wells among 6 primary T cell responses (IFN-γ or IL-5 ELISA)” value with PBMCs (Recurrent GBM 3) and in the test with PBMCs (Recurrent GBM 4) was “+ (+/++ cell=1-2 positive wells)” in each case. Also, the “IFN-γ/IL-5 ratio, recurrent GBM patients compared to primary GBM patients” value in the test with PBMCs (P<0.05) was “significantly lower”. For the same sequence, the results for the “IFN-γ/IL-5 ratio (geometric mean)” value with PBMCs (healthy subjects), with PBMCs (patients with primary GBMs) and with PBMCs (patients with recurrent GBMs) were 4.3, 0.3 and 0.4, respectively.
